From ChEMBL document CHEMBL5543157, “Lead Optimization of Butyrolactone I as an Orally Bioavailable Antiallergic Agent Targeting FcγRIIB” (J Med Chem, 2024)
Values belong to the compound of their own block, whether it stands above or below them. Activity calls are given as the source filed them. The rule behind the calls is not given here.

What was measured:
RBL-2H3 [1] = assay: Antiallergic activity in rat RBL-2H3 cell model assessed as inhibition rate of IgE-mediated degranulation in by measuring […] at 50 uM relative to control; type: functional
[2] = Half life in Sprague-Dawley rat at 40 mg/kg, po measured upto 12 hrs by mass spectrometry; type: ADME, organism-based; conditions: in vivo
[3] = Metabolic stability in human liver microsmes assessed as half life in presence of UDPGA measured upto 60 mins by HPLC analysis; type: ADME; conditions: liver microsomes
[4] = Metabolic stability in human liver microsmes assessed as half life in presence of NADPH measured upto 60 mins by HPLC analysis; type: ADME; conditions: liver microsomes
[5] = AUC (0 to infinity) in Sprague-Dawley rat at 10 mg/kg, iv measured upto 12 hrs by mass spectrometry; type: ADME, organism-based; conditions: in vivo
[6] = AUC (0 to 12 hrs) in Sprague-Dawley rat at 40 mg/kg, po measured upto 12 hrs by mass spectrometry; type: ADME, organism-based; conditions: in vivo
[7] = Metabolic stability in human liver microsmes assessed as half life measured upto 60 mins by HPLC analysis; type: ADME; conditions: liver microsomes
[8] = Cmax in Sprague-Dawley rat at 40 mg/kg, po measured upto 12 hrs by mass spectrometry; type: ADME, organism-based; conditions: in vivo
[9] = Tmax in Sprague-Dawley rat at 40 mg/kg, po measured upto 12 hrs by mass spectrometry; type: ADME, organism-based; conditions: in vivo
[10] = Clearance in Sprague-Dawley rat at 10 mg/kg, iv measured upto 12 hrs by mass spectrometry; type: ADME, organism-based; conditions: in vivo
[11] = AUC (0 to 12 hrs) in Sprague-Dawley rat at 10 mg/kg, iv measured upto 12 hrs by mass spectrometry; type: ADME, organism-based; conditions: in vivo
RBL-2H3 [12] = assay: Antiallergic activity in rat RBL-2H3 cell model assessed as inhibition rate of IgE-mediated degranulation in by measuring […]; type: functional, cell-based
[13] = Half life in Sprague-Dawley rat at 10 mg/kg, iv measured upto 12 hrs by mass spectrometry; type: ADME, organism-based; conditions: in vivo
[14] = AUC (0 to infinity) in Sprague-Dawley rat at 40 mg/kg, po measured upto 12 hrs by mass spectrometry; type: ADME, organism-based; conditions: in vivo
[15] = Oral bioavailability in Sprague-Dawley rat at 40 mg/kg measured upto 12 hrs by mass spectrometry; type: ADME, organism-based; conditions: in vivo
Mus musculus [16] = assay: Antiallergic activity against ovalbumin-sensitized food allergic Balb/c mouse model assessed as decrease in histamine level at 2.5 to 10 mg/kg treated once a day during OVA challenge phase (days 28 to 40) administered by intragastric; type: functional, organism-based; conditions: dose 2.5-10 mg/kg, route ig, time 13.0 day
Mus musculus [17] = assay: Antiallergic activity against ovalbumin-sensitized food allergic Balb/c mouse model assessed as suppression of spleen enlargement at 10 mg/kg once a day during OVA challenge phase (days 28 to 40) administered by intragastric; type: functional, organism-based; conditions: route ig, time 13.0 day
Mus musculus [18] = assay: Antiallergic activity against ovalbumin-sensitized food allergic Balb/c mouse model assessed as decrease in OVA-specific IgG1 level treated once a day during OVA challenge phase (days 28 to 40) administered by intragastric; type: functional, organism-based; conditions: dose 2.5-10 mg/kg, route ig, time 13.0 day
Mus musculus [19] = assay: Antiallergic activity against ovalbumin-sensitized food allergic Balb/c mouse model assessed as decrease in IL-4 level at 10 mg/kg treated once a day during OVA challenge phase (days 28 to 40) administered by intragastric; type: functional, organism-based; conditions: route ig, time 13.0 day
Mus musculus [20] = assay: Antiallergic activity against passive cutaneous anaphylaxis (PCA) reaction BALB/c mouse model assessed as reduction in BSA/IgE-mediated allergic reaction in ear by measuring extravasation of Evans blue dye pretreated IG for 7 days followed administered with anti-DNP-IgE after 24 hrs treated with DNP-BSA by Evans blue dye based microscopic analysis; type: functional, organism-based; conditions: dose 2.5-10 mg/kg, time 8.0 day
Mus musculus [21] = assay: Antiallergic activity against ovalbumin-sensitized food allergic Balb/c mouse model assessed as decrease in OVA-specific IgE level treated once a day during OVA challenge phase (days 28 to 40) administered by intragastric; type: functional, organism-based; conditions: dose 2.5-10 mg/kg, route ig, time 13.0 day
Mus musculus [22] = assay: Antiallergic activity against ovalbumin-sensitized food allergic Balb/c mouse model assessed as decrease in IFN-gamma level at 10 mg/kg treated once a day during OVA challenge phase (days 28 to 40) administered by intragastric; type: functional, organism-based; conditions: route ig, time 13.0 day
Mus musculus [23] = assay: Antiallergic activity against ovalbumin-sensitized food allergic Balb/c mouse model assessed as decrease in mMCP-1 level at 2.5 to 10 mg/kg treated once a day during OVA challenge phase (days 28 to 40) administered by intragastric; type: functional, organism-based; conditions: dose 2.5-10 mg/kg, route ig, time 13.0 day
RBL-2H3 [24] = assay: Cytotoxicity against rat RBL-2H3 cells assessed as cell viability at 5 to 100 uM incubated for 24 hrs by CCK8- assay; type: toxicity, cell-based; conditions: rbl-2h3, 24 h, dose 5-100 µM
[25] = Clearance in Sprague-Dawley rat at 40 mg/kg, po measured upto 12 hrs by mass spectrometry; type: ADME, organism-based; conditions: in vivo
Mus musculus [26] = assay: Antiallergic activity against ovalbumin-sensitized food allergic Balb/c mouse model assessed as decrease in OVA-specific IgG2a level at 2.5 to 10 mg/kg treated once a day during OVA challenge phase (days 28 to 40) administered by intragastric; type: functional, organism-based; conditions: dose 2.5-10 mg/kg, route ig, time 13.0 day
Mus musculus [27] = assay: Antiallergic activity against ovalbumin-sensitized food allergic Balb/c mouse model assessed as suppression of intestinal edema by measuring reduced intestinal damage at 10 mg/kg once a day during OVA challenge phase (days 28 to 40) administered by intragastric; type: functional, organism-based; conditions: route ig, time 13.0 day

half-life [2]: 4.7 h
half-life [3]: 0.292 h
half-life [4]: 0.326 h
AUC(0-inf) [5]: 27.8 ng·h/mL
AUC(0-t) at 12 h [6]: 28.9 ng·h/mL
half-life [7]: 0.283 h
Cmax [8]: 10.8 ng/mL
Tmax [9]: 0.7 h
CL ([10]; iv, 10 mg/kg, 12 h): 7202 mL/min/kg
AUC(0-t) at 12 h [11]: 21.7 ng·h/mL
IC50 (RBL-2H3 [12]): 13.5 µM
half-life [13]: 4.1 h
AUC(0-inf) [14]: 36.9 ng·h/mL
bioavailability [15]: 33.2%
Compound: COC(=O)[C@]1(Cc2ccc(O)c(CC=C(C)C)c2)OC(=O)C(O)=C1c1ccc(O)cc1
inhibition at 50 µM (RBL-2H3 [1]): > 90%

Compound: C=CCOC1=C(c2ccc(O)cc2)[C@](Cc2ccc(O)c(CC=C(C)C)c2)(C(=O)OC)OC1=O
inhibition at 50 µM (RBL-2H3 [1]): > 90%

half-life [2]: 4.1 h
half-life [3]: 2.22 h
half-life [4]: 3.73 h
AUC(0-inf) [5]: 4120 ng·h/mL
AUC(0-t) at 12 h [6]: 6540 ng·h/mL
half-life [7]: 8.88 h
Cmax [8]: 6110 ng/mL
Tmax [9]: 0.2 h
clearance ([10]; Sprague-Dawley): 45 mL/min/kg
AUC(0-t) at 12 h [11]: 4090 ng·h/mL
IC50 (RBL-2H3 [12]): 6.7 µM
CL/F [25]: 90 mL/min/kg
half-life [13]: 2.2 h
AUC(0-inf) [14]: 7560 ng·h/mL
bioavailability [15]: 45.9%
Compound: CC(=O)[C@]1(Cc2ccc(O)c(CC=C(C)C)c2)OC(=O)C(O)=C1c1ccc(O)cc1
inhibition at 50 µM (RBL-2H3 [1]): > 90%
Activity (Mus musculus [16]): Active
Activity (Mus musculus [17]): Active
Activity (Mus musculus [18]): Dose-Dependent Effect
Activity (Mus musculus [19]): Active
Activity (Mus musculus [20]): Dose-Dependent Effect
Activity (Mus musculus [21]): Dose-Dependent Effect
Activity (Mus musculus [22]): Active
Activity (Mus musculus [23]): Active
Activity (RBL-2H3 [24]): Non-Toxic
inhibition (RBL-2H3 [12]): Dose-Dependent Effect
Activity (Mus musculus [26]): inactive
Activity (Mus musculus [27]): Active

Compound: COC(=O)[C@]1(Cc2ccc(O)c(CC=C(C)C)c2)OC(=O)C(OC(=O)C(C)C)=C1c1ccc(O)cc1
inhibition at 50 µM (RBL-2H3 [1]): 36.7%

Compound: COC(=O)[C@]1(Cc2ccc(OC(C)=O)c(CC=C(C)C)c2)OC(=O)C(OC(C)=O)=C1c1ccc(O)cc1
inhibition at 50 µM (RBL-2H3 [1]): 27.8%

Compound: COC(=O)[C@]1(Cc2ccc(O)c(CC=C(C)C)c2)OC(=O)C(OC)=C1c1ccc(OC)cc1
inhibition at 50 µM (RBL-2H3 [1]): 17.1%

Compound: COC(=O)[C@]1(Cc2ccc(OC(C)=O)c(CC=C(C)C)c2)OC(=O)C(OC(C)=O)=C1c1ccc(OC(C)=O)cc1
inhibition at 50 µM (RBL-2H3 [1]): 11.7%

Compound: C=CCOC1=C(c2ccc(OCC=C)cc2)[C@](Cc2ccc(O)c(CC=C(C)C)c2)(C(=O)OC)OC1=O
inhibition at 50 µM (RBL-2H3 [1]): 8.95%

Compound: CC(C)=CCc1cc(C[C@@]2(C=O)OC(=O)C(O)=C2c2ccc(O)cc2)ccc1O
inhibition (RBL-2H3 [1]): Active
inhibition at 50 µM (RBL-2H3 [1]): 63.9%

Compound: COC(=O)[C@]1(Cc2ccc3c(c2)CCC(C)(C)O3)OC(=O)C(O)=C1c1ccc(O)cc1
inhibition at 50 µM (RBL-2H3 [1]): 10.1%

Compound: COC(=O)[C@]1(Cc2ccc(OC(=O)C(C)C)c(CC=C(C)C)c2)OC(=O)C(OC(=O)C(C)C)=C1c1ccc(OC(=O)C(C)C)cc1
inhibition at 50 µM (RBL-2H3 [1]): 6.93%

Compound: C=CCOC1=C(c2ccc(OCC=C)cc2)[C@](Cc2ccc(OCC=C)c(CC=C(C)C)c2)(C(=O)OC)OC1=O
inhibition at 50 µM (RBL-2H3 [1]): 18.4%

IC50 (RBL-2H3 [12]): 27.9 µM
Compound: CN1CCC(=C2c3ccccc3CC(=O)c3sccc32)CC1 [KETOTIFEN]

Compound: COC(=O)[C@]1(Cc2ccc(O)c(CC=C(C)C)c2)OC(=O)C(OC(C)=O)=C1c1ccc(O)cc1
inhibition at 50 µM (RBL-2H3 [1]): 33.5%

Compound: COC(=O)[C@]1(Cc2ccc(O)c(CC=C(C)C)c2)OC(=O)C(OC)=C1c1ccc(O)cc1
inhibition at 50 µM (RBL-2H3 [1]): 33.2%

Compound: COC(=O)[C@]1(Cc2ccc(OC)c(CC=C(C)C)c2)OC(=O)C(OC)=C1c1ccc(OC)cc1
inhibition at 50 µM (RBL-2H3 [1]): 38.7%

Compound: COC(=O)[C@]1(Cc2ccc(O)c(CC=C(C)C)c2)OC(=O)C(OC(=O)C(C)C)=C1c1ccc(OC(=O)C(C)C)cc1
inhibition at 50 µM (RBL-2H3 [1]): 21.3%

Compound: COC(=O)[C@]1(Cc2ccc(OCC=C(C)C)c(CC=C(C)C)c2)OC(=O)C(OCC=C(C)C)=C1c1ccc(OCC=C(C)C)cc1
inhibition at 50 µM (RBL-2H3 [1]): 15.6%

Compound: CC(C)=CCc1cc(C[C@@]2(CO)OC(=O)C(O)=C2c2ccc(O)cc2)ccc1O
inhibition (RBL-2H3 [1]): inactive
inhibition at 50 µM (RBL-2H3 [1]): 27.7%

Compound: COC(=O)[C@]1(Cc2ccc(O)c(CCC(C)C)c2)OC(=O)C(O)=C1c1ccc(O)cc1
inhibition at 50 µM (RBL-2H3 [1]): 47.9%
